Patent publication US20070287180A1, “Linear Dna Fragment For Markerless Deletion, Novel Strain Having Inhibited Formation Of Biofilm And Preparation Method Thereof” (priority 2004, published 2007)

Tested on: E. coli DEB31
Assay: Antibiotics susceptibility of biofilm-grown cells, plate counting (modified Whiteley method)
Assay type: cell-based, Escherichia coli
Conditions: for antibiotic concentration at which the number of living E. coli DEB31 equals that of wild-type MG1655 at the standard concentration: 24 h biofilm, then 10 h antibiotic at 30° C., MG1655 standard concentration: ampicillin 50, streptomycin 30, rifampicin 150 μg/ml
Description: The antibiotics susceptibility of the variants was measured using the modified technique developed by Whiteley (Whiteley M., Nature, 413, 860, 2001). In other words, 96-well polystyrene plates containing 0.2 ml of LB culture were inoculated with the variants to be incubated for 24 hours to allow biofilm formation. Each well was added with various concentrations of antibiotics ranging from 0.25 μg to 64 μg and were incubated for 10 hours. The number of living cells was measured by plate counting method.
After incubating the variants in 96-well plates containing 200 μl of LB medium for 24 hours, the serial diluted antibiotics was added to each well at the following concentration ranges: ampicillin, from 0 to 128 μg/ml; streptomycin, from 0 to 64 μg/ml; and rifampicin, from 0 to 256 μg/ml. The cells were incubated for additional 10 hours at 30° C. after antibiotics addition. Then, the number of the living E. coli variants was counted using the standard plate counting method.

| SMILES | antibiotic concentration at which the number of living E. coli DEB31 equals that of wild-type MG1655 at the standard concentration | increase of antibiotics susceptibility versus wild-type MG1655 (DEB31 / biofilm-deficient variants vs MG1655) |
| --- | --- | --- |
| CC1(C)S[C@@H]2[C@H](NC(=O)[C@H](N)c3ccccc3)C(=O)N2[C@H]1C(=O)O [ampicillin] | 2 µg/mL | – |
| CO[C@H]1/C=C/O[C@@]2(C)Oc3c(C)c(O)c4c(O)c(c(/C=N/N5CCN(C)CC5)c(O)c4c3C2=O)NC(=O)/C(C)=C\C=C\[C@H](C)[C@H](O)[C@@H](C)[C@@H](O)[C@@H](C)[C@H](OC(C)=O)[C@@H]1C [rifampicin] | 32 µg/mL | about 5 fold |
| [H]/N=C(/N)N[C@H]1[C@H](O)[C@@H](O)[C@H](O[C@@H]2O[C@@H](C)[C@](O)(C=O)[C@H]2O[C@@H]2O[C@@H](CO)[C@H](O)[C@@H](O)[C@@H]2NC)[C@@H](N/C(N)=N\[H])[C@@H]1O [streptomycin] | 8 µg/mL | – |
